Assay results reported in patent US20170050894A1, “FERTILIZER MIXTURE CONTAINING NITRIFICATION INHIBITOR” (EUROCHEM AGRO GMBH, priority 2013, published 2017).

Assay: Storage stability in an accelerated test (open glass beaker, 40 days at 30° C.)
Format: physicochemical
Conditions: for Analytical value (concentration of nitrification inhibitor on the mineral fertilizer): Value at start
Procedure: The concentration of nitrification inhibitor on the mineral fertilizer was determined before, during and after storage at two different depths in the bed, and the loss of nitrification inhibitor was ascertained. In each case about 10 to 30 g of treated mineral fertilizer were stored. The concentration of DMPP at the start was 1.028 g/kg fertilizer; for 2-(N-3,4-dimethylpyrazole)succinic acid, the figure was 1.244 g/kg fertilizer.
After 20 and 40 days, samples were taken from a surface region of the fertilizer bed (0 to 5 cm sampling depth and >5 cm sampling depth).
The results are shown in table 1 below, where DMPSA denotes 2-(N-3,4-dimethylpyrazole)succinic acid.

| Compound | Analytical value (concentration of nitrification inhibitor on the mineral fertilizer) | loss of nitrification inhibitor on storage, compared with DMPP (storage over 20 to 40 days on CAN) |
| --- | --- | --- |
| Cc1c[nH]nc1C.O=P(O)(O)O [DMPP, 3,4-dimethylpyrazole phosphate, reference compound] | 1.028 g/kg | – |
| Cc1cn(C(CC(=O)O)C(=O)O)nc1C (stereo not drawn) [DMPSA, 2-(N-3,4-dimethylpyrazole)succinic acid] | 1.244 g/kg | much lower |
